Experimental data published in patent publication US9005649B2, “Methods for making controlled delivery devices having zero order kinetics” (Board of Regents, the University of Texas System, priority 2009, dated 2015).
Values belong to the compound of their own block, whether it stands above or below them.

What was measured:
[1] = continuous release for seven days, glaucoma; cited from earlier work
[2] = Release of crystal violet from impermeable polyimide tube delivery devices into phosphate buffered saline (USP Disintegration Apparatus, UV-Vis); format: physicochemical; conditions: for linearity of release: 28 days; for total duration of release, percentage release extrapolated to 100%: PBS pH 7.37, 37° C., 28 days data
Procedure: Lengths of polyimide tubes were provided having a length of 20 mm and a diameter of 125 microns. At the centre of each tube, a passageway with a diameter of 30 microns was made using standard chemical procedures.
Seven (7) tubes having the optimal passageways were selected and loaded with a concentrated solution of crystal violet in ethanol by capillary method. The tubes were then allowed to stand for 24 hours at room temperature to evaporate alcohol from the tubes, such that the tube is tightly packed with a solid crystal violet composition.
After taking an initial weight measurement, an average amount of 126 micrograms of crystal violet was estimated inside the tubes. The ends of the tubes were sealed with a bioglue and dried.
Single passageway tubes made according to Example I were placed in microvials containing 0.26 ml of phosphate buffered saline (0.01 M phosphate, pH 7.37). The vials were placed in a USP Disintegration Apparatus having dip rate of 30-32 dips per minute. The apparatus was connected to a waterbath maintained at 37° C. for the entire duration of study. The buffer was changed every 48 hours, sampled, and analyzed for the amount of crystal violet released using a UV-Vis Spectrophotometer for 28 days.
Several drug delivery devices were constructed in accordance with in Example I except that two passageways were made located equidistant from the tube centre. The optimal seven (7) were selected and loaded with crystal violet in accordance with Example I.
Several drug delivery devices were constructed in accordance with Example I except that three passageways were made located equidistant from each end of the tube. The optimal seven (7) were selected and loaded with crystal violet in accordance with Example I.
Seven (7) lengths of polyimide tubes were provided having a length of 20 mm and a diameter of 125 microns. The tubes were then loaded with a concentrated solution of crystal violet in ethanol by capillary method. The tubes were then allowed to stand for 24 hours at room temperature to evaporate alcohol from the tubes, such that the tube is tightly packed with a solid crystal violet composition. One end of the tube was sealed with a bioglue while the other end was left open.
A drug delivery device made in accordance with Example VIII was subjected to release studies as described in Example II. […] The percentage release when extrapolated to 100% corresponds to the total duration of release of approximately 2 years.

[3] = as above; format: physicochemical; conditions: single outlet port device
[4] = Release of crystal violet from single outlet port devices of 200, 400 and 600 microns inside diameter (incubator, UV-Vis); format: physicochemical; conditions: one outlet port devices, 200, 400, 600 microns inside diameter, 3.0 ml PBS pH 7.37, 37° C., 7 days
Procedure: Drug delivery devices were made having one outlet port and one sealed end. […] Three different variation of devices were prepared with different inside diameters, as in 200, 400, and 600 microns. Four devices of each type were subjected to release studies as described in Example I. Single passageway tubes were placed in micro vials containing 3.0 ml of phosphate buffered saline (0.01 M phosphate, pH 7.37). The vials were placed in an incubator maintained at 37° C. for the entire duration of study. The buffer was changed every 24 hours, sampled, and analyzed for the amount of crystal violet released using a UV-Vis Spectrophotometer for seven (7) days.

[5] = intravenous, AIDS patients with CMV retinitis; cited from earlier work

Compound: CC[C@@H]1C(=O)OC[C@@H]1Cc1cncn1C [pilocarpine]
release rate from ocular insert [1]: 20 to 40 µg/h

amount released relative to single passageway device ([2]; double passageway device): two-fold
linearity of release ([2]; double passageway device): significant linear agent release
total duration of release, percentage release extrapolated to 100% ([2]; double passageway device): approximately 22 years
total duration of release, percentage release extrapolated to 100% ([2]; single passageway device (30 micron passageway, 20 mm x 125 micron tube)): approximately 43 years
linearity of release ([2]; single passageway device): significant linearity of release
amount released relative to single passageway device ([2]; triple passageway device): three-fold
linearity of release ([2]; triple passageway device): significant linear agent release
total duration of release, percentage release extrapolated to 100% ([2]; triple passageway device): approximately 15 years
linearity of release ([3]; 5 days): significant linearity of release
total duration of release, percentage release extrapolated to 100% ([3]; no surface passageways, one open end, 5 days data): approximately 2 years
linearity of release [4]: significant linearity of release
Compound: CN(C)c1ccc(C(=C2C=CC(=[N+](C)C)C=C2)c2ccc(N(C)C)cc2)cc1 [crystal violet]

Compound: Nc1nc(O)c2ncn(COC(CO)CO)c2n1 [Ganciclovir]
patients experiencing bone marrow toxicity resulting in neutropenia (neutrophil count <1000) [5]: 30-50%
